Target: T1, CD80-CD28 interaction (Homo sapiens, UniProt P33681)
T1 sequence (P33681 35-242 limits assumed): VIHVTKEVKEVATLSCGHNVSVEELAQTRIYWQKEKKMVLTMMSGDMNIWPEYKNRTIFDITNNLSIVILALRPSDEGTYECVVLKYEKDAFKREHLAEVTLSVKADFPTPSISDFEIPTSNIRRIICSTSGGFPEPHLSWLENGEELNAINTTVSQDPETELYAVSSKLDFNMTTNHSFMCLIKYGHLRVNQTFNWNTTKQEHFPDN
Assay: Homogenous Time Resolved Fluorescence (HTRF) assay, cell free
Assay type: binding
Settings: inhibition of CD80-CD28 interaction; concentration series 100 μM-1.7 nM; 4 hours at room temperature; read-out: Activity Rating (EC50) in the HTRF assay
Method: Homogenous Time Resolved Fluorescence Assay
The examples described above were tested in a cell free Homogenous Time Resolved Fluorescence (HTRF) assay to determine their activity as inhibitors of the CD80-CD28 interaction.
In the assay, europium and allophycocyanin (APC) are associated with CD28 and CD80 indirectly (through antibody linkers) to form a complex, which brings the europium and APC into close proximity to generate a signal. The complex comprises the following six proteins: fluorescent label 1, linker antibody 1, CD28 fusion protein, CD80 fusion protein, linker antibody 2, and fluorescent label 2. The table below describes these reagents in greater detail.
On formation of the complex, europium and APC are brought into proximity and a signal is generated.
Non-specific interaction was measured by substituting a mouse Fab fragment (C215) for the CD80 mouse Fab fragment fusion protein (1.9 μg/ml). The assay was carried out in black 384 well plates in a final volume of 30 μl. Assay buffer: 50 mM Tris-HCl, 150 mM NaCl pH7.8, containing 0.1% BSA (w/v) added just prior to use.
Compounds were added to the above reagents in a concentration series ranging between 100 μM-1.7 nM. The reaction was incubated for 4 hours at room temperature. Dual measurements were made using a Wallac Victor 1420 Multilabel Counter. First measurement: excitation 340 nm, emission 665 nm, delay 50 μs, window time 200 μs. second measurement: excitation 340 nm, emission 615 nm, delay 50 μs, window time 200 μs. Counts were automatically corrected for fluorescence crossover, quenching and background. The EC50 activities of compounds tested are recorded as: EC50: *=>10 μM, **=1-10 μM, ***=<1 μM.

EC50	Compound
> 10000 nM	CN1C(C)(C)CC(NC(=O)c2ccc(-n3[nH]c(-c4ccno4)cc3=O)cc2)CC1(C)C [Example 2, 4-(3-Isoxazol-5-yl-5-oxo-2,5-dihydro-pyrazol-1-yl)-N-(1,2,2,6,6-pentamethyl-piperidin-4-yl)-benzamide]
> 10000 nM	Cc1c(-c2ccco2)[nH]n(-c2ccc(C(=O)NC3CC(C)(C)N(C)C(C)(C)C3)cc2)c1=O [Example 3, 4-(3-Furan-2-yl-4-methyl-5-oxo-2,5-dihydro-pyrazol-1-yl)-N-(1,2,2,6,6-pentamethyl-piperidin-4-yl)-benzamide]
1000 to 10000 nM	CN(C)CCCNC(=O)c1ccc(-n2[nH]c(-c3ccccc3)cc2=O)cc1 [Example 5]
> 10000 nM	O=C(NCCN1CCN(Cc2ccccc2)CC1)c1ccc(-n2[nH]c(-c3ccccc3)cc2=O)cc1 [Example 6]
1000 to 10000 nM	CN1C(C)(C)CC(NC(=O)c2ccc(-n3[nH]c(-c4ccccc4)cc3=O)cc2)CC1(C)C [Example 7]
< 1000 nM	O=C(NCCCCN1CCCC1)c1ccc(-n2[nH]c(-c3ccccc3)cc2=O)cc1 [Example 8]
1000 to 10000 nM	O=C(NCCCNC1CCCCC1)c1ccc(-n2[nH]c(-c3ccccc3)cc2=O)cc1 [Example 9]
< 1000 nM	CN(C)CCCNC(=O)c1ccc(-n2[nH]c(-c3ccccn3)cc2=O)cc1 [Example 10]
< 1000 nM	CN(C)CCCNC(=O)c1ccc(-n2[nH]c(-c3ccco3)cc2=O)cc1 [Example 11]
1000 to 10000 nM	CN(C)CCCNC(=O)c1ccc(-n2[nH]c(-c3cccnc3)cc2=O)cc1 [Example 12]
1000 to 10000 nM	O=C(NCCCNC1CCCCC1)c1ccc(-n2[nH]c(-c3ccccn3)cc2=O)cc1 [Example 13]
< 1000 nM	O=C(NCCCNC1CCCCC1)c1ccc(-n2[nH]c(-c3ccco3)cc2=O)cc1 [Example 14]
1000 to 10000 nM	O=C(NCCCNC1CCCCC1)c1ccc(-n2[nH]c(-c3cccnc3)cc2=O)cc1 [Example 15]
< 1000 nM	CN1C(C)(C)CC(NC(=O)c2ccc(-n3[nH]c(-c4ccccn4)cc3=O)cc2)CC1(C)C [Example 16]
1000 to 10000 nM	CN(C)CCCNC(=O)c1ccc(-n2[nH]c(-c3ccoc3)cc2=O)cc1 [Example 17]
< 1000 nM	O=C(NCCCNC1CCCCC1)c1ccc(-n2[nH]c(-c3ccoc3)cc2=O)cc1 [Example 18]

EC50	Compound
< 1000 nM	CN1C(C)(C)CC(NC(=O)c2ccc(-n3[nH]c(-c4ccco4)cc3=O)cc2)CC1(C)C [Example 19]
1000 to 10000 nM	CN1C(C)(C)CC(NC(=O)c2ccc(-n3[nH]c(-c4ccoc4)cc3=O)cc2)CC1(C)C [Example 20]
1000 to 10000 nM	O=C(NCCCCN1CCCC1)c1ccc(-n2[nH]c(-c3ccco3)cc2=O)cc1 [Example 21]
1000 to 10000 nM	O=C(NCCCCN1CCCC1)c1ccc(-n2[nH]c(-c3ccoc3)cc2=O)cc1 [Example 22]
1000 to 10000 nM	CN1C(C)(C)CC(NC(=O)c2ccc(-n3[nH]c(-c4cccnc4)cc3=O)cc2)CC1(C)C [Example 23]
< 1000 nM	O=C(NCCCCN1CCCC1)c1ccc(-n2[nH]c(-c3ccccn3)cc2=O)cc1 [Example 24]
1000 to 10000 nM	O=C(NCCCCN1CCCC1)c1ccc(-n2[nH]c(-c3cccnc3)cc2=O)cc1 [Example 25]
< 1000 nM	CN(C)CCCNC(=O)c1ccc(-n2[nH]c(-c3cccc(F)c3)cc2=O)cc1 [Example 26]
1000 to 10000 nM	O=C(NCCCNC1CCCCC1)c1ccc(-n2[nH]c(-c3cccc(F)c3)cc2=O)cc1 [Example 27]
< 1000 nM	CN1C(C)(C)CC(NC(=O)c2ccc(-n3[nH]c(-c4cccc(F)c4)cc3=O)cc2)CC1(C)C [Example 28]
1000 to 10000 nM	O=C(NCCCCN1CCCC1)c1ccc(-n2[nH]c(-c3cnccn3)cc2=O)cc1 [Example 29]
< 1000 nM	CN(C)CCCNC(=O)c1ccc(-n2[nH]c(-c3cnccn3)cc2=O)cc1 [Example 30]
1000 to 10000 nM	O=C(NCCCCN1CCCC1)c1ccc(-n2[nH]c(-c3cc4ccccc4o3)cc2=O)cc1 [Example 31]
1000 to 10000 nM	CN(C)CCCNC(=O)c1ccc(-n2[nH]c(-c3cc4ccccc4o3)cc2=O)cc1 [Example 32]
1000 to 10000 nM	O=C(NCCCNC1CCCCC1)c1ccc(-n2[nH]c(-c3cc4ccccc4o3)cc2=O)cc1 [Example 33]
1000 to 10000 nM	CN1C(C)(C)CC(NC(=O)c2ccc(-n3[nH]c(-c4cc5ccccc5o4)cc3=O)cc2)CC1(C)C [Example 34]

Target: T2, Biotinylated human CD80 (hCD80-BT) (Homo sapiens, UniProt P33681)
T2 construct: biotin (biotinylation)
T2 sequence (P33681 35-242 limits assumed): T1 sequence (P33681 35-242 limits assumed)
Assay: Biacore biomolecular interaction analysis (BIAcore S51)
Assay type: binding
Settings: BIAcore S51, immobilised hCD80-BT
Text: Assay Protocols The Use of Biacore Biomolecular Interaction Analysis
Biotinylated human CD80 (hCD80-BT) is a recombinant soluble form of a membrane bound receptor molecule (CD80) which binds to CD28 to initiate T cell activation. The interaction between CD80 and CD28 has been extensively investigated (Collins et al., 2002). Biotinlyated human HLA-A2-tax is the recombinant soluble form of a membrane bound receptor molecule that has been used in this example as a control protein, and is not expected to interact with the compounds.
The BIAcore S51™ system was used for screening the compounds of Examples 1-4 above. A series S sensor chip CM5 was docked onto the BIAcore S51™. Streptavidin was coupled to the carboxymethyl surface using standard amine coupling. The chip surface was activated with 0.2M EDC/0.05M NHS, followed by binding of streptavidin (0.25 mg/ml in 10 mM sodium acetate pH 5.0) and saturation of unoccupied sites with […].
The BIAcore S51 sensor chip has two separate sensor spots for immobilisation of proteins. hCD80-BT was immobilised on the streptavidin-coated surface of one sensor spot until a response of approximately 3000 RU was observed. A protein to control for non-specific binding of the compound was immobilised on a second sensor spot. The control protein used for these experiments was a biotinylated, soluble form of the human HLA protein.
Dilution series of compounds (1000 nM-0.05 nM) were prepared in running buffer (10 mM, pH 7.4, 150 mM NaCl, 0.005% P20; 5% DMSO).
BIAcore S51™ was run at a flow rate of 30 μl/min using running buffer. Compounds and DMSO standard solutions for correction of data for solvent effects were injected. Data were recorded automatically and were analysed using BIAcore S51 Evaluation software.

Kd	off-rate on CD80	Compound
< 100 nM	2×10^−2	CN1C(C)(C)CC(NC(=O)c2ccc(-n3[nH]c(-c4ccccc4)cc3=O)cc2)CC1(C)C [Example 7]
< 100 nM	2×10^−2	CN(C)CCCNC(=O)c1ccc(-n2[nH]c(-c3ccco3)cc2=O)cc1 [Example 11]

Tested on: IL-2 production by human Jurkat T cells (with Raji cells, anti-CD3)
Assay: Inhibition of production of interleukin-2 (IL-2) by human Jurkat T cells
Assay type: cell-based
Settings: 5 hours
Method: Inhibition of Production of Interleukin-2 (IL-2) by Human Jurkat T Cells.
Human Raji cells were dispensed at a concentration of 2×10^5 cells per well in RPMI-1640 medium supplemented with 10% fetal calf serum, 1% penicillin/streptomycin, 1% glutamine (RPMI medium) in a 96-well round bottom microtitre plate. Compounds under investigation (dissolved in 100% DMSO) were diluted to eight-fold the desired final concentration in RPMI medium and added to the required final concentration for a total volume of 200 μl per well. After 20 minutes incubation at 37° C., Jurkat T cells were added at a concentration of 2×10^5 cells per well. Monoclonal antibody to CD3 (UCHT1, R&D Systems) was added to the cultures at a final concentration of 1 μg per ml, and where indicated, monoclonal antibody to CD28 (CD28.2, BD-Pharmingen) was also added at a concentration of 2.5 μg per ml. Cells were cultured at 37° C. for 5 hours, after which the plates were centrifuged and the supernatants harvested for IL-2 ELISA assay using the IL-2 Eli-pair kit (DIACLONE Research, Besancon, France) according to the manufacturers instructions.

Compound	inhibition at 30 µM
CN(C)CCCNC(=O)c1ccc(-n2[nH]c(-c3cccc(F)c3)cc2=O)cc1 [Example 26]	52%

Target: T2, Biotinylated human CD80 (hCD80-BT)
Assay: not given
Settings: endogenous protein ligand CD28; cited from earlier work

Compound	off-rate of CD80-CD28 interaction
CD28: the endogenous protein ligand of CD80	greater than 0.2 s^−1

Same assay, conditions: endogenous protein ligand CD28; read-out: KD of CD80-CD28 interaction; cited from earlier work

Compound	Kd
CD28: the endogenous protein ligand of CD80	4750 nM

Reference: patent US7816361B2, “Immuno inhibitory pyrazolone compounds” (Medigene Limited, priority 2003, dated 2010)
